In patent publication US4681754A, “Counteracting cyclosporin organ toxicity” (Sandoz Ltd., priority 1984, dated 1987):

Legend:
Format in all cases: in vivo
rats (F344×WF)FI = test: Test 1: immuno-suppressive activity, local graft-versus-host (GVH) reaction in the rat; conditions: Cyclosporine alone p.o. on 4 successive days
Description: The test is carried out employing rats (F344×WF)FI sensibilized by injection into the hind-foot of spleen cells taken from .female. Wistar-Furth (WF) rats. The test animals are divided into groups of 8. […] GVH reaction is determined by measurement of increase in lymphe node weight compared with untreated controls.

OFA rats = test: Test 3: anti-inflammatory activity, adjuvant arthritis in the rat; conditions: Cyclosporine alone p.o./day for 14 days
Description: For this test adjuvant arthritis is induced in accordance with the method described by Pearson and Wood, "Arthr. Rheum." 2, 440 (1959). OFA .female. rats are employed as test animals. […] Administration is effected in all cases on successive days for 14 days starting on day 1 after antigen administration and inflammatory reaction is determined on day 19 after antigen administration.

OFI mice = test: Test 2: immuno-suppressive activity, anti-body producing cell development in the mouse (PFC test); conditions: Cyclosporine alone p.o. on 3 successive days
Description: The test is carried out employing .female. OFI mice sensibilized by i.v. administration of ca. 1×10^8 sheep erythrocytes (SRBC). The test animals are divided into groups of 5.
The spleens are removed on day 4 and a cell suspension prepared and incubated with fresh SRBC antigen on soft agar. After addition of compliment, which, together with anti-body secreted from the sensibilized cells, dissolves SRBC in the vicinity of secreting cells, plaque development is counted and compared with results obtained employing untreated control mice.

Cyclosporine
ED50 for Cyclosporine, GVH reaction (increase in lymph node weight) (rats (F344×WF)FI): 27 mg/kg
ED50 for Cyclosporine, adjuvant arthritis (inflammatory reaction day 19) (OFA rats): 4.2 mg/kg
ED50 for Cyclosporine, PFC test (plaque development) (OFI mice): 40 mg/kg
